Columns and labels:
Assay in all cases: Determination of the bactericidal activity (logarithmic reduction in organism count)
Conditions in all cases: contact for 30 minutes at a substance concentration of 120 μg/mL
[1] = test system: S. choleraesuis ATCC 10708; type: cell-based, Salmonella choleraesuis
Procedure: (§1) Determination of the Bactericidal Activity of Selected Compounds
(§2) Casein-soybean flour-peptone broth for preparation of pre-cultures of test bacteria
(§3) Examples of Test Organisms:
(§4) • Staphylococcus aureus ATCC 6538 • Escherichia coli ATCC 10536 • Salmonella choleraesuis ATCC 10708 Procedure:
(§5) The test substances are dissolved in dimethyl sulfoxide (DMSO) and tested in a concentration of 120 μg/ml.
(§6) Bacteria are incubated overnight in CASO broth and adjusted to an organism count of 1–5×10^5 CFU/ml using 0.85% sodium chloride solution.
(§7) The test substances are pre-pipetted into microtitre plates in amounts of 8 μl per well.
(§8) The adjusted test organism suspensions are added in amounts of 192 μl per well to the test substances and mixed. After defined contact times, the test batches are mixed, an aliquot is withdrawn and diluted in several steps in a dilution series of 1:10 in a suitable inactivation medium.
The test plates are incubated for 24 hours at 37° C. […]
(§9) One microtitre plate is used for each test organism.
(§10) All the substances are tested in duplicate.

E. coli NCTC 8196 = type: cell-based, Escherichia coli
S. aureus ATCC 6538 = type: cell-based, Staphylococcus aureus
Procedure: as §1, §2, §3, §4, §5, §6, §7, §8
The test plates are incubated for 24 hours at 37° C.
After incubation, the growth is determined on the basis of the turbidity of the test batches (optical density) at 620 nm in a microplate reader.
as §9, §10

SMILES	Logarithmic reduction in organism count, S. choleraesuis ATCC 10708 [1]	Logarithmic reduction in organism count, E. coli NCTC 8196 (E. coli NCTC 8196)	Logarithmic reduction in organism count, S. aureus ATCC 6538 (S. aureus ATCC 6538)
NCCCCCCCCCNc1cc(C(F)(F)F)nc(-c2ccccn2)n1 [Compound of formula 30]	≦1 log	<1 log	≦1 log
CCCCCCCNc1cc(C(F)(F)F)nc(-c2ccccn2)n1 [Compound of formula 32]	≦1 log	<1 log	<1 log
CCCCCCCCNc1cc(C(F)(F)F)nc(-c2ccccn2)n1 [Compound of formula 33]	<1 log	<1 log	<1 log
CCCCCCCCCNc1cc(C(F)(F)F)nc(-c2ccccn2)n1 [Compound of formula 34]	<1 log	<1 log	<1 log
CCCCCCCCCCNc1cc(C(F)(F)F)nc(-c2ccccn2)n1 [Compound of formula 35]	<1 log	<1 log	<1 log
CCCCCCCCCCCCCCCCNc1cc(C(F)(F)F)nc(-c2ccccn2)n1 [Compound of formula 37]	<1 log	<1 log	1–2 log
CC(C)c1cc(NCCCCCCCCCN)nc(-c2ccccn2)n1 [Compound of formula 42]	<1 log	≦1 log	2 log
CC(C)c1cc(NCCCCCCCCCCCCN)nc(-c2ccccn2)n1 [Compound of formula 43]	<1 log	<1 log	3 log
CCCCCCCNc1cc(C(C)C)nc(-c2ccccn2)n1 [Compound of formula 44]	<1 log	<1 log	1–2 log
CCCCCCCCNc1cc(C(C)C)nc(-c2ccccn2)n1 [Compound of formula 45]	<1 log	<1 log	1–2 log
CCCCCCCCCNc1cc(C(C)C)nc(-c2ccccn2)n1 [Compound of formula 46]	<1 log	<1 log	≦1 log
CCCCCCCCCCNc1cc(C(C)C)nc(-c2ccccn2)n1 [Compound of formula 47]	<1 log	<1 log	1 log
CCCCCCCCCCCCNc1cc(C(C)C)nc(-c2ccccn2)n1 [Compound of formula 48]	<1 log	<1 log	1 log
CC(C)(C)c1cc(NCCCCCCCCCN)nc(-c2ccccn2)n1 [Compound of formula 54]	≦1 log	≦1 log	2–3 log
CCCCCCCCCNc1cc(C(C)(C)C)nc(-c2ccccn2)n1 [Compound of formula 58]	≦1 log	≦1 log	1 log
CCCCCCCCCCCCNc1cc(C(C)(C)C)nc(-c2ccccn2)n1 [Compound of formula 60]	<1 log	<1 log	<1 log
CC(C)(C)c1cc(NCCc2ccccc2)nc(-c2ccccn2)n1 [Compound of formula 63]	<1 log	≦1 log	<1 log
Cc1nc(-c2ccccn2)nc(NCCCCCCCCN)c1C(C)C [Compound of formula 65]	<1 log	<1 log	3 log
CCCCCCCNc1nc(-c2ccccn2)nc(C)c1C(C)C [Compound of formula 68]	<1 log	<1 log	≦1 log
CCCCCCCCNc1nc(-c2ccccn2)nc(C)c1C(C)C [Compound of formula 69]	≦1 log	<1 log	1–2 log
CCCCCCCCCNc1nc(-c2ccccn2)nc(C)c1C(C)C [Compound of formula 70]	<1 log	≦1 log	≦1 log
CCCCCCCCCCNc1nc(-c2ccccn2)nc(C)c1C(C)C [Compound of formula 71]	<1 log	<1 log	2 log
COCCc1cc(NCCCCCCCCN)nc(-c2ccccn2)n1 [Compound of formula 77]	<1 log	<1 log	>3 log
COCCc1cc(NCCCCCCCCCN)nc(-c2ccccn2)n1 [Compound of formula 78]	<1 log	≦1 log	>3 log
CCCCCCCCCCNc1cc(CCOC)nc(-c2ccccn2)n1 [Compound of formula 83]	<1 log	≦1 log	2 log
CCCCCCCCCCCNc1nc(-c2ccccn2)nc(C)c1CC [Compound of formula 89]	≦1 log	≦1 log	2 log
CCCCCCCCCCCCCCCNc1nc(-c2ccccn2)nc(C)c1CC [Compound of formula 90]	<1 log	<1 log	2 log
CCCCCCCCCCCNc1cc(C)nc(-c2ccccn2)n1 [Compound of formula 92]	≦1 log	<1 log	>3 log
CCCCCCCCCCCCCCCNc1cc(C)nc(-c2ccccn2)n1 [Compound of formula 93]	<1 log	≦1 log	2 log

Source: patent US7015228B2, “4-amino-2-(2-pyridyl)pyrimidines as microbicidal active substances” (Ciba Specialty Chemicals Corporation, priority 2001, dated 2006)
